This is an account of results in patent US5098613A, “Anti-inflammatory agents” (Eli Lilly and Company, priority 1990, dated 1992).

Assay [1] concerns Arachidonic Acid Induced Ear Edema. Kind of assay: Arachidonic Acid-Induced Ear Edema Assay. The format is in vivo, Female BALB/C mice. The conditions noted are these: Mus musculus, 1 h; 0.05% in ethanol gel, topical, one hour prior to arachidonic acid; read-out: Percent Inhibition of Ear Swelling. How it is done: Female BALB/C mice (Charles River; 18-20 rams) were divided into groups of five. Arachidonic acid was dissolved in ethanol at a concentration of 200 mg/ml. Each mouse received 2 mg/ear of arachidonic acid on the inner surface of the right ear. This dose of phlogistic was applied by an automatic pipette in 10 mcl volumes. The left ear (control) received ethanol. Drugs were applied topically in an ethanol-based gel to the entire outer surface of both ears one hour prior to arachidonic acid application. Edema was measured by the increase in ear weight. An hour after arachidonic acid solution or vehicle was applied, an ear sample of 7 mm in diameter was obtained from both ears. Ear edema was calculated by subtracting the […], dividing by the weight of the left/Control ear, and averaging the results for each group of mice according to compound and concentration.

Assay [2] concerns the target T1, leukotriene B4 specific receptor on the membrane of human neutrophils (Homo sapiens, UniProt Q15722).
T1 construct: incubating neutrophils (1×10^7 cells) with 0.1-0.2 nM ^3 H-LTB4; endogenous in cells; host or cells: human peripheral blood neutrophils (buffy coats of two blood donors)
Kind of assay: Inhibition of Binding of ^3 H-LTB4 to Peripheral Human Neutrophils. The following applies: 4° C., 10 minutes; for inhibition at 10 µM: drug concentration 10^-5 M, read-out: LTB4 Binding Inhibition; for inhibition at 1 µM: drug concentration 10^-6 M. As for the experimental part: The effectiveness of compounds to inhibit the binding of leukotriene B4 to a specific receptor on the membrane of human neutrophils was measured by using an adaptation of a radio-ligand binding assay developed by Goldman and Goetzl, J. Immunol., 129, 1600 (1982). Other investigators have developed similar assays (see, e.g., Kreisle, et al., J. Exp. Med., 157, 628 (1983) and Lin, et al., Prostaglandins, 28, 837 (1984)).
Cells used in the assay were isolated by standard techniques of centrifugation on Ficol-Hypaque, dextran 70 sedimentation and hypotonic lysis. The following procedure was used. Freshly-prepared buffy coat layers from two individuals were obtained from a local blood donor center. The cells were mixed and diluted to 484 ml. with phosphate buffered saline containing heparin (10 units/ml) and heat-inactivated calf serum (5%). This was divided into 20 ml. aliquots and the aliquots layered on top of Ficoll-Paque (12 ml.). The material was then centrifuged at 500 g. for 40 minutes at room temperature. The resulting upper layer of platelets and mononuclear cells was discarded. The lower layer containing erythrocytes and neutrophils was retained. Buffer was added (1 ml. per 4 ml. of lower layer) and the suspension mixed. For each milliliter of this mixture, 0.33 ml. of 6% Macrodex was added. After stirring, the cels were allowed to sediment for 1 hour at 37° C. The resulting erythrocyte pellet was discarded and the neutrophil enriched supernatant fluid centrifuged at 500 g. for 10 minutes at 4° C. Erythrocytes still present in this cell pellet were lysed by incubating the cells with 5-8 ml. ice-cold distilled water for 30-45 seconds. Subsequently, the volume was made up to 50 ml. by addition of ice-cold buffer and the cells resuspended. The suspension was then centrifuged at 300 g. for 10 minutes at 4° C. The cells were finally resuspended at a cell density of 2×10^7 cells/ml in the assay buffer. This buffer Consisted of Hanks' balanced salt solution and 0.1% ovalbumin (pH 7.3).
The radio-ligand binding assay was conducted by incubating neutrophils (1×10^7 cells) with 0.1-0.2 nM ^3 H-LTB4 (sp. act. 150-220 Curies/mmol) and test compound (1×10^-5 M and 1×10^-6 M) for 10 minutes at 4° C. The amount of bound ^3 H-LTB4 was then measured and compared with the amount bound in the absence of test compound. The assay was carried out in microcentrifuge tubes by adding first 10 μl test compound dissolved in DMSO, followed by adding 20 μl ^3 H-LTB4 diluted in assay buffer, and finally adding 500 μl of the cell suspension pension. At the end of the 10 minutes incubation, 300 μl of a mixture of dibutyl and dinonyl phthalate (7:2) were added and the tubes centrifuged for 2 minutes in a microcentrifuge. The radioactivity bound to the cell pellet was measured by scintillation spectroscopy. Appropriate corrections for nonspecific bonding of ^3 H-LTB4 were made.

For assay [3], the system named is IL-1 induced T-cell Proliferation. Description: Anti IL-1 Activity (Thymocyte Assay): suppression of IL-1 induced T-cell proliferation. The class given is cell-based, C3H/HeJ male mice. The conditions noted are these: mouse thymocytes, 48 hours, read-out: Percent T-cell suppression; for inhibition at 1 µg/mL: 1 mcg/ml; for inhibition at 10 µg/mL: 10 mcg/ml. How it is done: Thymus from 3-4 week old C3H/HeJ male mice and were passed through a #100 mesh screen to make a single cell suspension. The cells were suspended in RPMI-1640 supplemented with 2×10^-5 M 2-mercaptoethanol, 3% fetal calf serum, and 1% Penicillin/Streptomycin. The cell suspension was placed in a tissue culture flask and incubated at 37° C. in 5% carbon dioxide in air for 1-2 hours. The thymocytes were decanted, leaving adherent cells behind, and the liquid was centrifuged at 1400 rpm for 10 minutes. After decanting the supernatant, the cells were resuspended and counted with a hemocytometer. The density was adjusted to […]. Fifty μ1 of the suspension were added to each well of a 96-well microtiter plate, followed by the addition of 25 μl of PHA and 25 μl IL-1 (1:25 dilution of a 10 mcg/ml stock solution) per well.
Each compound to be tested was dissolved in 30% DMSO/70% PBS to make a stock solution of 1 mg/ml. Fifteen μl of each compound were added to 300 μl of media in the serial dilution plate. Twenty-five μl of each drug were added to the test plate in quadruplicate wells across the plate. The plate was incubated at 37° C. in 5% carbon dioxide in air for 48 hours. The wells were pulsed with tritiated thymidine (5 μCi.well) for 4 hours before harvesting on a Skatron cell harvester. The filter discs were placed in mini-vials, scintillation fluid (Tol-Pop) was added, and the vials counted. The percent of counts for each vial compared with control samples wherein no compound was added (vehicles only) was determined for each compound and are reported as Table III below as the percent T-ce1 suppression.

Counter-ions that a name gives are not always drawn.

T1 sequence (Q15722 whole entry): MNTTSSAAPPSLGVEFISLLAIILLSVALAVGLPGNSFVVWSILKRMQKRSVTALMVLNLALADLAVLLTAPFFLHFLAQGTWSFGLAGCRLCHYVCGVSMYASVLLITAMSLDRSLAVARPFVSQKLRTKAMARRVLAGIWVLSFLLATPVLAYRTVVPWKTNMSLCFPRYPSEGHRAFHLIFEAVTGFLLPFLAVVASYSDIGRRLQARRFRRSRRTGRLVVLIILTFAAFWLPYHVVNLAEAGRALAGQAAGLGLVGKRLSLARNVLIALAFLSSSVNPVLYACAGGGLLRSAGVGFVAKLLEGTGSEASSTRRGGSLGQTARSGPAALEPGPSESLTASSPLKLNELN

In the case of `CCc1cc(C(C)=O)c(O)cc1OCc1cccc(Cl)c1` [Example 56, 4-(3-Chlorobenzyloxy)-5-ethyl-2-hydroxyacetophenone], the inhibition in vivo at 0.05 % in assay [1] came out at 6%. In assay [2], the inhibition at 10 µM was determined as 42% and the inhibition at 1 µM was 15%.

Take `CCCCc1cc(C(C)=O)c(O)cc1OCCCCC#N` [Example 30, 5-(4-Acetyl-2-butyl-5-hydroxyphenoxy)-pentanenitrile]: in assay [3], the inhibition at 1 µg/mL worked out at 32% and the inhibition at 10 µg/mL stood at 91%. Further, in assay [2], the inhibition at 10 µM came to 37% and the inhibition at 1 µM is 7%.

Turning to `CCCc1cc(C(C)=O)c(Cl)cc1OCCCCC#N` [Example 15, 5-(4-Acetyl-5-chloro-2-propylphenoxy)-pentanenitrile], in assay [3], the inhibition at 1 µg/mL turned out to be 33% and the inhibition at 10 µg/mL turned out to be 91%. Moreover, in assay [2], the inhibition at 10 µM turned out to be 35% and the inhibition at 1 µM amounted to 13%.

Regarding `CCc1cc(C(=O)c2ccccc2)c(O)cc1OCCCCC#N` [Example 130, 5-(4-Benzoyl-2-ethyl-5-hydroxyphenoxy)pentane-nitrile], in assay [3], the inhibition at 1 µg/mL amounted to 41% and the inhibition at 10 µg/mL was found to be 99%. Also, in assay [2], the inhibition at 10 µM worked out at 48% and the inhibition at 1 µM was determined as 23%.

`CC(=O)c1cc(CC(C)O)c(OCCCCC#N)cc1O` (stereo not shown) [Example 125, 5-[4-Acetyl-5-hydroxy-2-(2-hydroxypropyl)-phenoxy]pentanenitrile]: in assay [3], the inhibition at 1 µg/mL was determined as 30% and the inhibition at 10 µg/mL was 85%. In assay [2], the inhibition at 10 µM worked out at 10% and the inhibition at 1 µM came to 6%.

With `C=CCc1cc(C(C)=O)c(OC)cc1OCCCCC#N` [Example 115, 5-(4-Acetyl-5-methoxy-2-allylphenoxy)pentanenitrile], in assay [3], the inhibition at 1 µg/mL came out at 29% and the inhibition at 10 µg/mL came to 96%. For the same compound, in assay [2], the inhibition at 10 µM lay in the range of 12 to 16% and the inhibition at 1 µM was in the range of 7 to 8%.

As to `C=CCc1cc(C(C)=O)c(O)cc1OCCCCN(C)C` [Example 76, 4-[4-(Dimethylamino)butoxy]-2-hydroxy-5-allylacetophenone hydrochloride], in assay [3], the inhibition at 1 µg/mL stood at 39% and the inhibition at 10 µg/mL worked out at 79%. In assay [2], the inhibition at 10 µM came to 0% and the inhibition at 1 µM turned out to be 0%.

As for `CCc1cc(C(=O)c2cccc(C(=O)O)c2)c(O)cc1OCCCCC#N` [Example 92], in assay [3], the inhibition at 1 µg/mL is 5% and the inhibition at 10 µg/mL was 38%. In assay [2], the inhibition at 10 µM came to 40% and the inhibition at 1 µM was 20%.

With `CCc1cc(C(=O)CCCCC(=O)O)c(O)cc1OCCCCC#N` [Example 90, 6-[(4-Cyanobutoxy)-5-ethyl-2-hydroxybenzene]-6-oxohexanoic acid], in assay [3], the inhibition at 1 µg/mL is 3% and the inhibition at 10 µg/mL was 47%. In assay [2], the inhibition at 10 µM was 1% and the inhibition at 1 µM is -2%.

In the case of `C=CCc1cc(C(C)=O)c(O)cc1OCCCCCCCC` [Example 38, 4-(Octyloxy)-5-allyl-2-hydroxyacetophenone], in assay [3], the inhibition at 1 µg/mL was -8% and the inhibition at 10 µg/mL was 28%. Besides, in assay [2], the inhibition at 10 µM was 16% and the inhibition at 1 µM was 8%.

Turning to `CC(=O)c1cc(CO)c(OCCCCCCC#N)cc1O` [Example 36, 7-[4-Acetyl-5-hydroxy-2-(hydroxymethyl)-phenoxy]heptanenitrile], in assay [3], the inhibition at 1 µg/mL is 15% and the inhibition at 10 µg/mL was 75%. Also, in assay [2], the inhibition at 10 µM is 40% and the inhibition at 1 µM was found to be 7%.

With `C=CCc1cc(C(C)=O)c(O)cc1OCCCCc1nn[nH]n1` [Example 109, 2-Hydroxy-5-allyl-4-[4-(lH-tetrazol-5-yl)-butoxy]acetophenon], in assay [3], the inhibition at 1 µg/mL was 7% and the inhibition at 10 µg/mL came out at 56%. In assay [2], the inhibition at 10 µM amounted to 41% and the inhibition at 1 µM came to 3%.

In the case of `CCc1cc(C(=O)c2ccccc2C(=O)O)c(O)cc1OCCCCC#N` [Example 89, 2-[4-(4-Cyanobutoxy)-5-ethyl-2-hydroxybenzoyl]benzoic acid], in assay [3], the inhibition at 1 µg/mL was found to be 9% and the inhibition at 10 µg/mL was found to be 39%. In addition, in assay [2], the inhibition at 10 µM came out at 11% and the inhibition at 1 µM turned out to be 15%.

As for `CCc1cc(C(C)=O)c(O)cc1OCc1cccc(C(F)(F)F)c1` [Example 58, 5-Ethyl-2-hydroxy-4-(3-trifluoromethyl-benzyloxy)acetophenone], in assay [2], the inhibition at 10 µM was 67% and the inhibition at 1 µM was determined as 22%.

As for `C=CCc1cc(C(=O)CCCCCCCCC)c(O)cc1OCCCCC#N` [Example 107, 5-[5-Hydroxy-4-(1-oxodecyl)-2-allylphenoxy]pentanenitrile], in assay [3], the inhibition at 1 µg/mL is 47% and the inhibition at 10 µg/mL was determined as 26%. Also, in assay [2], the inhibition at 10 µM came out at 10% and the inhibition at 1 µM came out at 6%.

As to `CCc1cc(C(C)=O)c(O)cc1OCCCCCN` [Example 137, 1-{4-[(5-Aminopentyl)oxy]-5-ethyl-2-hydroxyphenyl}ethanone], in assay [2], the inhibition at 10 µM is 43% and the inhibition at 1 µM worked out at 22%.

In the case of `CCCc1cc(C(C)=O)c(O)cc1OCCCCC(=O)O` [Example 132, 5-(4-Acetyl-5-hydroxy-2-propylphenoxy)pentanoic acid], in assay [3], the inhibition at 1 µg/mL stood at 15% and the inhibition at 10 µg/mL turned out to be 59%. In addition, in assay [2], the inhibition at 10 µM is 0% and the inhibition at 1 µM worked out at 0%.

As for `CC(=O)c1cc(C=O)c(OCCCCC#N)cc1O` [Example 18, 5-(4-Acetyl-5-hydroxy-2-formylphenoxy)-pentanenitrile], in assay [2], the inhibition at 10 µM is 5% and the inhibition at 1 µM was 3%.

On to `CCc1cc(C(C)=O)c(O)cc1OCc1ccc(C(=O)O)c(O)c1` [Example 148, 4-[(4-Acetyl-2-ethyl-5-hydroxyphenoxy)methyl]-2-hydroxybenzoic acid], for which, in assay [2], the inhibition at 10 µM was found to be 44% and the inhibition at 1 µM amounted to 14%.
